The values below come from ChEMBL document CHEMBL3507680, “University of Dundee, Gates Library screen for HepG2 cell viability”.

The structures appear in SMILES notation.

The data set in a line: Human HepG2 cell viability assay in 384 well format. The class given is toxicity, cell-based. Details: dose 125 nL, time 70.5 hour; concentration not given beside the values. To be noted: HepG2 cells, read-out: Inhibition.

`CSc1ccc(CN(CCO)C(=O)CCc2ccc(O)cc2)cc1`: the cytotoxicity at 70.5 h is -16.6%.
The figure for `Nc1ccc(-c2cc(O)cc(CCC3CCCCN3)c2)cn1` (stereo unspecified) is -5.09%; for `CCCN1CCC(N2CCOC(Cc3cccc(OC)c3)C2)CC1` (stereo unspecified) it is 9.86%.
For the compound `Cc1noc(C)c1CN1C[C@@H]2CC[C@H](C1)N(Cc1cc(F)cc(F)c1)C2`, the cytotoxicity at 70.5 h is -14.1%.
The figure for `COCCn1cncc1CN1CCC(C(C)=O)(c2ccccc2)CC1` is -15.1%; for `c1ccc(CN2CCC(Cc3noc(C4CC4)n3)CC2)cc1` it is -5.84%.
For `CNC(=O)[C@@H]1C[C@@H](n2cc(-c3ccc(Cl)cc3)nn2)CN1`, the cytotoxicity at 70.5 h stood at 13.9%.
Regarding `Cc1nnc(CN2C[C@H](NC(=O)C3CCOCC3)[C@@H](C(C)C)C2)s1`, the cytotoxicity at 70.5 h is -6.56%.
Take `CCc1nc(CC2CN(c3ncnc4sc(C)c(C)c34)CCO2)no1` (stereo unspecified): the cytotoxicity at 70.5 h is -19.7%.
As for `CSc1ncccc1C(=O)N1C[C@H]2CC[C@@H]1CN(CC(=O)N(C)C)C2`, the cytotoxicity at 70.5 h amounted to 45.6%.
Take `CN(C)C[C@H]1CC[C@@H](Cc2ccc3c(cnn3C)c2)O1`: the cytotoxicity at 70.5 h is -11.9%.
With `Nc1ccnc(N2CCC(CCc3ccccc3)(C(=O)O)CC2)n1`, the cytotoxicity at 70.5 h turned out to be 14.5%.
Turning to `CNC(=O)[C@@H]1C[C@@H](NC(=O)c2ccc(OC)o2)CN1Cc1sccc1C`, the cytotoxicity at 70.5 h stood at 1.26%.
As for `CCN1CC(C(=O)NCc2nn(CC)c3ccccc23)CCC1=O` (stereo unspecified), the cytotoxicity at 70.5 h was 10.8%.
On to `CCN1CCC2(CCC1=O)CN(c1cnc3ccccc3n1)CCN2C` (stereo unspecified), for which the cytotoxicity at 70.5 h was -2.99%.
Turning to `N[C@@H]1c2ccccc2C2(CCN(c3cc(C(F)(F)F)ccn3)CC2)[C@H]1O`, the cytotoxicity at 70.5 h turned out to be 39.4%.
With `COc1cccc(-c2noc(-c3ccc(NCCCO)nc3)n2)c1OC`, the cytotoxicity at 70.5 h was 2.28%.
On to `Cc1nc(N2CCN(C)CC2)ncc1C(=O)N1CC[C@](C)(O)[C@H](C)C1`, for which the cytotoxicity at 70.5 h was -7.36%.
With `CNCC(=O)N[C@H]1CN(c2nc(C)c3c(n2)CCCC3)C[C@@H]1C1CC1`, the cytotoxicity at 70.5 h is -11.2%.
Regarding `CCn1cnnc1CCNCc1c[nH]nc1-c1ccc(F)cc1`, the cytotoxicity at 70.5 h is 5.79%.
For `Cn1c(Cn2cccn2)nnc1C1CCN(Cc2ccccc2Cl)CC1`, the cytotoxicity at 70.5 h is -4.12%.
The figure for `Cc1cccc(-c2nc(N)nc3c2CN(C(=O)c2ccncn2)C3C)c1` (stereo unspecified) is -18.2%; for `Cc1ccncc1C(=O)N1C[C@H]2CN(CC3CCC3)C[C@@]2(C(=O)O)C1` it is -8.6%; for `CN1CCC(n2nc(Cc3cccc(Cl)c3)nc2Cn2ccnc2)CC1` it is -8.49%.
As for `COc1cccc(OC2CN(C(=O)CCn3cnc4ccccc43)C2)c1`, the figure is 29.2%; as for `Cc1ccc([C@@H]2CN(C(=O)c3cc(C)n[nH]3)C[C@H]2NC(=O)C2CC2)cc1`, 6.77%.
As for `CC(C)c1nc(CCN(C)c2nccc(N3CCCC(O)C3)n2)no1` (stereo unspecified), the figure is -8.03%; as for `CCc1ccc(CN2CCOC(Cc3cccc(F)c3)C2)nc1` (stereo unspecified), -5.34%.
Consider `CC1(C)CNC(=O)c2nc(CCN3CCC(O)CC3)[nH]c2C1`, for which the cytotoxicity at 70.5 h is -1.47%.
In the case of `OC1CCN(CCNc2ncc3c(n2)CCN3c2ccccc2)CC1`, the cytotoxicity at 70.5 h is -7.98%.
For `O=C(c1cccc(-n2cccn2)c1)N1CCCOC(CN2CCCC2)C1` (stereo unspecified), the cytotoxicity at 70.5 h came out at 0.244%.
`CC(=O)Nc1ccc(Cl)c(C(=O)N(C)Cc2nc(C)c[nH]2)c1`: the cytotoxicity at 70.5 h was -8.28%.
Turning to `COc1cccc(Cl)c1C(C(=O)O)N1CCC(Cn2cccn2)CC1` (stereo unspecified), the cytotoxicity at 70.5 h came to 17.9%.
Consider `O=C(NC1CCCN(CCCc2ccccc2)C1)c1ccc(Cl)s1` (stereo unspecified), for which the cytotoxicity at 70.5 h is -4.66%.
For the compound `Cc1ccc(F)c(NC(=O)CCC(=O)N(C)Cc2nc(C)c[nH]2)c1`, the cytotoxicity at 70.5 h is -5.55%.
On to `COc1ccc2c(C)c(C(=O)NCC3CN(S(C)(=O)=O)CCO3)oc2c1` (stereo unspecified), for which the cytotoxicity at 70.5 h is 16.6%.
Consider `O=C(CO)N1CCCC(N2CCN(c3ccccc3F)CC2)C1` (stereo unspecified), for which the cytotoxicity at 70.5 h was -0.739%.
With `COc1ccc(OC)c(C2CCN(C(=O)CCc3n[nH]c(N)n3)C2)c1` (stereo unspecified), the cytotoxicity at 70.5 h amounted to 12.4%.
On to `CC1(C)CN(C(=O)c2ccccc2-n2cncn2)CC1(C)O` (stereo unspecified), for which the cytotoxicity at 70.5 h was found to be 18.2%.
On to `Cc1ccc2nc(CN3CCN(C4CCCC4)C(=O)C3)cc(O)c2c1`, for which the cytotoxicity at 70.5 h amounted to 9.29%.
As for `c1cncc(-c2noc(CCNc3ncnc4c3CCNCC4)n2)c1`, the cytotoxicity at 70.5 h is -7.7%.
As for `CC(=O)N1C[C@H](NC(=O)c2ccnc(N)c2)[C@@H](C(C)C)C1`, the cytotoxicity at 70.5 h came out at 3.14%.
On to `Cc1ccc(C)c2c1NC(=O)C2CC(=O)O` (stereo unspecified), for which the cytotoxicity at 70.5 h is 2.65%.
As for `COCCn1ccnc1C1CCCN(C(=O)c2cc(F)cc(F)c2)C1` (stereo unspecified), the figure is -3.01%; as for `Cc1cc(N2CCC(N3CCOCC3)C2)n2nc(C)c(C)c2n1` (stereo unspecified), -4.03%; as for `O=C(c1cnc(O)cc1O)N1CCCC(CCc2ccccc2F)C1` (stereo unspecified), -11.4%.
As to `O=C(CCn1cccn1)N1CCC(C2CCN(c3ncccn3)CC2)C1` (stereo unspecified), the cytotoxicity at 70.5 h is -6.6%.
With `CCC[C@@H]1CN(Cc2cc3c(cc2OC)OCO3)C[C@H]1C(=O)O`, the cytotoxicity at 70.5 h was -2.47%.
`CCN(Cc1ccncc1)C1CCCN(C/C=C/c2ccc(F)cc2)C1` (stereo unspecified): the cytotoxicity at 70.5 h was -3.49%.
As to `OCC1(Cc2ccc(Cl)cc2)CCN(Cc2ccccc2O)CC1`, the cytotoxicity at 70.5 h was -4.64%.
`Cc1cc(C(=O)N2C[C@H]3CCC[C@@]3(CO)C2)c2ccc(F)cc2n1`: the cytotoxicity at 70.5 h was -1.1%.
Take `Cc1cccc(C(C(=O)N2CCN(C(=O)c3ccc[nH]3)CC2)N(C)C)c1` (stereo unspecified): the cytotoxicity at 70.5 h is -8.99%.
Take `COc1ccccc1OC1CN(C(=O)C(c2ccccc2F)N(C)C)C1` (stereo unspecified): the cytotoxicity at 70.5 h was -0.928%.
On to `CC(=O)Nc1cccc(C(=O)N(C)C(C)Cc2cc(C)ccn2)c1` (stereo unspecified), for which the cytotoxicity at 70.5 h was -2.97%.
`CCN(CC)C(=O)Cn1cc(-c2nc(C(C)C)no2)nn1`: the cytotoxicity at 70.5 h is -9.42%.
As for `COc1ccc(-c2ncc(-c3nccn3CCN(C)C)cn2)cc1`, the cytotoxicity at 70.5 h was -10.5%.
The figure for `COc1nccnc1-c1cc(NC2CCCC2)nc2[nH]ccc12` is -16.1%.
On to `CCc1nnc(N2CCN(CCc3ccccc3)C(=O)C2)o1`, for which the cytotoxicity at 70.5 h is -2.76%.
As to `COc1ncccc1-c1cc(C(=O)NC2CC2)ccn1`, the cytotoxicity at 70.5 h is -8.1%.
For `CC(C)N1CCC(CC(=O)N(C)C(C)c2cncs2)CC1` (stereo unspecified), the cytotoxicity at 70.5 h is -15.3%.
Regarding `CCc1cc(C(=O)NCC2CCN(Cc3cccc(C#N)c3)C2)on1` (stereo unspecified), the cytotoxicity at 70.5 h is -1.72%.
For the compound `O=C(NCC1CCN(Cc2cc3ccccc3[nH]2)C1)c1ccsc1` (stereo unspecified), the cytotoxicity at 70.5 h was -9.16%.
In the case of `COc1cccn(CC(=O)N(C)CCCOc2c(C)cccc2C)c1=O`, the cytotoxicity at 70.5 h amounted to 29.5%.
Turning to `C[C@@H]1CN(C(=O)CCCn2nnc(-c3ccc(F)cc3)n2)C[C@]1(C)O`, the cytotoxicity at 70.5 h is 22.7%.
For `CC(C)(C)c1cc(=O)[nH]c(-c2ccccc2CN2CCCCCC2)n1`, the cytotoxicity at 70.5 h is -3.97%.
For `Nc1ccnc(N2C[C@@H]3CC[C@H](C2)N(CC2CCC2)C3=O)n1`, the cytotoxicity at 70.5 h is -3.52%.
The figure for `Cc1[nH]c(=O)[nH]c(=O)c1CC(=O)N1CCC(Oc2ccc(F)cc2)CC1` is -12.2%; for `COc1ccc([C@@H]2C[C@H](NC(C)=O)C[C@H](CCc3ccccc3)O2)cn1` it is -4.78%; for `O=c1cc(N2CCCCC2)cnn1CCCn1cccn1` it is 4.12%.
`Cc1ccc(CN(C)c2nccc(-c3cn(C)nc3C)n2)o1`: the cytotoxicity at 70.5 h is -9.08%.
As to `O=C(NCc1cc2n(n1)CCCNC2)C1(c2ccccc2)CCCCC1`, the cytotoxicity at 70.5 h turned out to be 0.103%.
As for `Cc1cc(C(F)(F)F)nc(CCNC(C)Cn2ccnc2)n1` (stereo unspecified), the figure is -23.4%; as for `Cc1nc(-c2cn(CCN)nn2)n(-c2ccc3c(c2)CCC3)n1`, -4.36%.
Regarding `CN(Cc1n[nH]c(=O)n1CCc1ccccc1F)S(C)(=O)=O`, the cytotoxicity at 70.5 h was -1.83%.
The figure for `Nc1cc(C(=O)NCC2CCN(Cc3cccc(O)c3)C2)ccn1` (stereo unspecified) is 18.3%.
As for `COCC1CCN(c2nc(C(C)(C)C)nc3c2cnn3C)C1` (stereo unspecified), the cytotoxicity at 70.5 h was 15.8%.
The figure for `NC(=O)CN1CC2(CCC1=O)CCN(Cc1ccc(Cl)c(F)c1)CC2` is 2.58%; for `CN1CCC(C)(CN(C)C(=O)c2ccc(CCC(C)(C)O)cc2)C1` (stereo unspecified) it is -1.78%; for `O=C1CCC2(CCOC2)CN1Cc1ccc2nsnc2c1` (stereo unspecified) it is -3.21%.
Turning to `O=C(NCCc1ccncc1)c1cccc(S(=O)(=O)NC2CCOC2)c1` (stereo unspecified), the cytotoxicity at 70.5 h stood at 5.63%.
For `Cc1[nH]nc(CCC(=O)NCC2CCCN(C3CCCC3)C2)c1C` (stereo unspecified), the cytotoxicity at 70.5 h is -5.73%.
Regarding `COc1ccc2c(=O)n(CC3CCNC3)ccc2c1OC` (stereo unspecified), the cytotoxicity at 70.5 h was 1.63%.
On to `O=C(c1cnc(O)cn1)N1CCC(CN2CCOCC2)CC1`, for which the cytotoxicity at 70.5 h is -13.8%.
As for `CCn1c(CN(C)C)nnc1C1CCN(Cc2cccc(F)c2F)CC1`, the figure is -1.68%; as for `COCC(=O)N1CCCC(COc2ccccc2C)C1` (stereo unspecified), 12.8%; as for `O=C(NCCc1cccs1)N1CCCC2(CCC(=O)N(C3CC3)C2)C1` (stereo unspecified), -0.67%.
In the case of `CCc1cc(N(C)Cc2nonc2C)nc(N2CCOCC2)n1`, the cytotoxicity at 70.5 h stood at 1.99%.
Regarding `COc1ncc(CN(C)C(C)c2cccnc2)cn1` (stereo unspecified), the cytotoxicity at 70.5 h turned out to be 9.74%.
As for `Cc1ccccc1-c1noc(-c2ccc(NCC3COCCO3)nc2)n1` (stereo unspecified), the figure is -3.64%; as for `CCOCCn1nc(C)cc1C(=O)N1CC[C@@](O)(COC)C(C)(C)C1`, 25.9%.
As for `COc1cccc2ncn(C(C)Cn3cccn3)c(=O)c12` (stereo unspecified), the cytotoxicity at 70.5 h was -3.99%.
For `Cc1cncc(C(=O)N2CCNCC2C(=O)Nc2ccc(C)nc2)c1` (stereo unspecified), the cytotoxicity at 70.5 h was -3.64%.
Regarding `CS(=O)(=O)c1ccc(CN2CCCCC2c2cccc(F)c2)cc1` (stereo unspecified), the cytotoxicity at 70.5 h is -9.66%.
The figure for `O=C1CC2(CCN(Cc3ccc(-c4ccn[nH]4)s3)CC2)CN1` is -13.8%; for `O=C(c1cccc(Cl)c1)N1CCCC(Nc2ccc(F)cc2)C1` (stereo unspecified) it is 2.07%.
For `CCNCCc1nc2cc(F)ccc2[nH]1`, the cytotoxicity at 70.5 h was -4.56%.
